From PubChem BioAssay (NCI)
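In this assay, cells in 96-well plates receive the compound at five concentrations for 48 hours. Endpoints are linearly interpolated between the surrounding concentrations. GI50: concentration for 50% inhibition of growth. TGI: concentration producing complete growth inhibition.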

Experiments:
Assay in all cases: NCI anticancer screen, dose series, 48 h
M14 melanoma = system: M14 melanoma
RXF 393 renal = system: RXF 393 renal
RPMI-8226 leukemia = system: RPMI-8226 leukemia
SF-539 CNS = system: SF-539 CNS
MCF7 breast = system: MCF7 breast
HOP-92 NSCLC = system: HOP-92 NSCLC
U251 CNS = system: U251 CNS
LOX IMVI melanoma = system: LOX IMVI melanoma
OVCAR-3 ovarian = system: OVCAR-3 ovarian
NCI-H522 lung = system: NCI-H522 lung
HL-60(TB) leukemia = system: HL-60(TB) leukemia
HCC-2998 colon = system: HCC-2998 colon
SNB-75 CNS = system: SNB-75 CNS
HS 578T breast = system: HS 578T breast
TK-10 renal = system: TK-10 renal
SF-295 CNS = system: SF-295 CNS
SF-268 CNS = system: SF-268 CNS
786-0 renal = system: 786-0 renal
HOP-62 NSCLC = system: HOP-62 NSCLC
SNB-19 CNS = system: SNB-19 CNS
SK-OV-3 ovarian = system: SK-OV-3 ovarian

Work on `CC(C)OC(=S)[S-].[Au+].c1ccc([PH+](c2ccccc2)c2ccccc2)cc1` yielded a GI50 (M14 melanoma) of 0.986 µM, a TGI (M14 melanoma) of 2.32 µM and a GI50 (RXF 393 renal) of 0.387 µM. For the same compound, the TGI (RXF 393 renal) was 1.48 µM, the GI50 (RPMI-8226 leukemia) was 0.747 µM and the TGI (RPMI-8226 leukemia) was 4.01 µM. The GI50 (SF-539 CNS) was 1.24 µM, the TGI (SF-539 CNS) was 2.49 µM and the GI50 (MCF7 breast) was 0.467 µM. The TGI (MCF7 breast) was 2.66 µM, the GI50 (HOP-92 NSCLC) was 1.07 µM and the TGI (HOP-92 NSCLC) was 2.25 µM. The GI50 (U251 CNS) was 0.419 µM, the TGI (U251 CNS) was 1.56 µM and the GI50 (LOX IMVI melanoma) was 0.478 µM. It also gave a TGI (LOX IMVI melanoma) of 2.07 µM, a GI50 (OVCAR-3 ovarian) of 0.316 µM and a TGI (OVCAR-3 ovarian) of 1.05 µM. It also gave a GI50 (NCI-H522 lung) of 0.176 µM, a TGI (NCI-H522 lung) of 0.409 µM and a GI50 (HL-60(TB) leukemia) of 0.264 µM. The TGI (HL-60(TB) leukemia) was 1.36 µM.
Work on `Cc1cc2c(C#N)n3c(c2cc1C)C(=O)C(c1ccccc1)Oc1ccccc1-3` (stereo unspecified) yielded a GI50 (HCC-2998 colon) greater than 100 µM, a TGI (HCC-2998 colon) greater than 100 µM and a GI50 (SNB-75 CNS) of 2.25 µM. For the same compound, the TGI (SNB-75 CNS) was 9.58 µM, the GI50 (RXF 393 renal) was 2.71 µM and the TGI (RXF 393 renal) was 39.6 µM. It also gave a GI50 (HS 578T breast) of 4.29 µM, a TGI (HS 578T breast) greater than 100 µM and a GI50 (TK-10 renal) of 3.33 µM. For the same compound, the TGI (TK-10 renal) was greater than 100 µM, the GI50 (SF-295 CNS) was 3.83 µM and the TGI (SF-295 CNS) was greater than 100 µM. The GI50 (SF-268 CNS) was 3.73 µM, the TGI (SF-268 CNS) was greater than 100 µM and the GI50 (HOP-92 NSCLC) was 1.62 µM. It also gave a TGI (HOP-92 NSCLC) of 5.77 µM, a GI50 (786-0 renal) of 3.91 µM and a TGI (786-0 renal) greater than 100 µM. It also gave a GI50 (HOP-62 NSCLC) of 3.71 µM, a TGI (HOP-62 NSCLC) greater than 100 µM and a GI50 (SNB-19 CNS) of 2.97 µM. It also gave a TGI (SNB-19 CNS) greater than 100 µM, a GI50 (SK-OV-3 ovarian) of 5.55 µM and a TGI (SK-OV-3 ovarian) greater than 100 µM.
